Our source for the Ki values is patent publication US7271170B2, “Imidazo-pyrimidines and triazolo-pyrimidines: benzodiazepine receptor ligands” (Neurogen Corporation, priority 2003, dated 2007).

Each structure is given as a SMILES string. pKi: −log10 of the molar value.

The term pKi denotes −log10 of the Ki, conventionally taken in molar units. A lower pKi goes with a high Ki.

This assay has as its target benzodiazepine site of the GABAA receptor. Description: Ligand binding assay of Example 6 (3H-Ro15-1788 competition, purified rat cortical membranes). Particulars: ligand binding assay of Example 6; Table 5 Ki.
`CCCc1c(Cn2ccnc2-c2ncccc2F)ncn2nc(C3CCCO3)nc12` (stereo not shown) [Compound 254, 7-{[2-(3-fluoropyridin-2-yl)-1H-imidazol-1-yl]methyl}-8-propyl-2-(tetrahydrofuran-2-yl)[1,2,4]triazolo[1,5-c]pyrimidine] gave a pKi of over 6.00.
On to `Cc1nc2c(CCCOCc3ccccc3)c(Cn3ccnc3-c3ncccc3F)ncn2n1` [Compound 226, 8-(3-Benzyloxy-propyl)-7-[2-(3-fluoro-pyridin-2-yl)-imidazol-1-ylmethyl]-2-methyl[1,2,4]triazolo[1,5-c]pyrimidine], for which the pKi was over 6.00.
Molecule `CCCc1c(Cn2ccnc2-c2ncccc2F)ncn2nc(COC3CCCC3)nc12` [Compound 265, 2-[(cyclopentyloxy)methyl]-7-{[2-(3-fluoropyridin-2-yl)-1H-imidazol-1-yl]methyl}-8-propyl[1,2,4]triazolo[1,5-c]pyrimidine] showed a pKi of over 6.00.
As for `Cc1nc2c(CCCO)c(Cn3ccnc3-c3ncccc3F)ncn2n1` [Compound 228, 3-{7-[2-(3-Fluoro-pyridin-2-yl)-imidazol-1-ylmethyl]-2-methyl-[1,2,4]triazolo[1,5-c]pyrimidin-8-yl}-propan-1-ol], the pKi was over 6.00.
In turn, `CCCc1c(Cn2ccnc2-c2cccc(F)n2)nc(C)n2nc(CC)nc12` [Compound 218, 2-Ethyl-7-[2-(6-fluoro-pyridin-2-yl)-imidazol-1-ylmethyl]-5-methyl-8-propyl-[1,2,4]triazolo[1,5-c]pyrimidine] gave a pKi of over 6.00.
For the molecule `CCCc1c(Cn2ccnc2-c2ncccc2F)ncn2nc(OC)nc12` [Compound 246, 7-{[2-(3-fluoropyridin-2-yl)-1H-imidazol-1-yl]methyl}-2-methoxy-8-propyl[1,2,4]triazolo[1,5-c]pyrimidine], the pKi was over 6.00.
In the case of `CCCc1c(Cn2ccnc2-c2ncccc2F)ncn2nc(CO)nc12` [Compound 223, {7-[2-(3-Fluoro-pyridin-2-yl)-imidazol-1-ylmethyl]-8-propyl-[1,2,4]triazolo[1,5-c]pyrimidin-2-yl}-methanol], the pKi is over 6.00.
Regarding `CCCc1c(Cn2ccnc2-c2ncccc2F)ncn2nc(C(C)(C)O)nc12` [Compound 249, 2-(7-{[2-(3-fluoropyridin-2-yl)-1H-imidazol-1-yl]methyl}-8-propyl[1,2,4]triazolo[1,5-c]pyrimidin-2-yl)propan-2-ol], the pKi is over 6.00.
The molecule `CCCc1c(Cn2ccnc2-c2cccc(F)n2)ncn2nc(COCC)nc12` [Compound 250, 2-(ethoxymethyl)-7-{[2-(6-fluoropyridin-2-yl)-1H-imidazol-1-yl]methyl}-8-propyl[1,2,4]triazolo[1,5-c]pyrimidine] showed a pKi of over 6.00.
Regarding `CCCc1c(Cn2ccnc2-c2ncccc2F)ncn2nc(COCC(F)(F)F)nc12` [Compound 255, 7-{[2-(3-fluoropyridin-2-yl)-1H-imidazol-1-yl]methyl}-8-propyl-2-[(2,2,2-trifluoroethoxy)methyl][1,2,4]triazolo[1,5-c]pyrimidine], the pKi was over 6.00.
